Data as given in patent US20030232101A1, “Topical formulations of resorcinols and cannibinoids and methods of use” (Immugen Pharmaceuticals, Inc., priority 2002, published 2003).
pIC50: −log10 of the molar value. “Also recorded” adds a separate entry of the source. Read-outs that look alike come from different tables or passages of the source.

Columns and labels:
[1] = tested on: HIV-1; experiment: HeLa CD4 LTR β-gal HIV-1 attachment assay (Experimental Example 1); format: cell-based; settings: for pIC50: Human immunodeficiency virus 1, HeLa; for inhibition of HIV attachment/entry: following a 24 h pre-incubation
[2] = tested on: HIV-1 (96USHIPS7 strain); experiment: HIV attachment assay in PBMCs (cell-associated p24); format: cell-based; settings: for Comments: effect on HIV attachment / % Control / pg p24: 15 μM; for Comments: effect on HIV attachment: pretreatment 0, 2, 4, 24 h
Method: ELISA kits were purchased from Coulter Electronics. The assay was performed according to the manufacturer's instructions. Control curves were generated in each assay to accurately quantitate the amount of p24 antigen in each sample. For experiments using cell lysates. Fifty thousand (5×10^4) viable cells were lysed in Coulter ELISA buffer and subjected to 1 round of freeze/thawed to liberate trapped p24 and p24 detected per manufacturers instructions. HIV capsid protein (p24) was quantitated spectrophotometrically at 450 nm using a Molecular Devices Vmax plate reader using a standard curve. Final concentrations were calculated from the optical density values using the Molecular Devices Soft Max software package.
The attachment assay with PBMCs was performed as follows. Briefly, 1×10^6 PHA/IL-2 PBMCs were incubated for 0, 2, 4 and 24 hours with IMG compounds and cannabidiol in polypropylene tubes. A pre-titered amount of HIV-1 (96USHIPS7 strain, obtained from the AIDS Research and Reference Reagent Program ) was added in the presence of compound and incubated for 3 h at 37° C. After incubation the cultures were washed 3 times (400×g, 10 min, 4° C.) with media (1:25,000 dilution of input p24), the cell pellets lysed with p24 lysing buffer (Coulter) and p24 content determined by ELISA.
PBMCs pretreated with compounds for 0, 2, 4, and 24 were incubated with cell-free HIV-1 for 3 h and the excess unbound HIV removed. The assessed the amount of HIV bound to the cell was then assessed by measuring cell-associated p24 content of total cell lysates.

[3] = PBMC cell viability in time of addition assay (MTS / Trypan Blue); format: cell-based, Human; settings: human, read-out: TC50
Excerpt: (§1) Human peripheral blood mononuclear cells (PBMCs) from a minimum of 2 donors, that have been blasted with PHA and IL-2, were counted, viability determined by Trypan Blue dye exclusion and mixed in equal ratios. Pooled donors were used to minimize the variability observed between individual donors which results from quantitative and qualitative differences in HIV infection and overall response to the PHA and IL-2 of primary lymphocyte populations. The cells were resuspended at 1×10^6 cells /mL in RPMI 1640 without phenol red supplemented with 15% Fetal Bovine Serum (heat inactivated), 2 mM L-glutamine, 100 U/mL penicillin, 100 μg/mL streptomycin, 10 μg/mL gentamycin and IL-2 (20 U/mL, R&D Systems, Minneapolis, Minn.). Fifty microliters of cells were then distributed to the inner 60 wells of a 96 well round bottom microtiter culture plate in a standard format developed by the Infectious Disease Research department of Southern Research Institute. Each plate contains cell control wells (cells only), virus control wells (cells plus virus), and experimental wells (drug plus cells plus virus). Alternatively, cells were cultured in T25 cm^2 or T75 cm^2 tissue culture flasks at a starting density of 1×10^6 cells per ml. Serially diluted compounds were added to the microtiter plate or tissue culture flask followed by the appropriate pre-titered strain of HIV-1. For virus replication inhibition experiments the HIV-1 strain RoJo was used. This is a low passage presumable subtype B pediatric isolate with a syncytium inducing (SI) phenotype in MT-2 cells isolated by Southern Research Institute personnel. All samples were assayed in triplicate where possible with an accompanying determination of compound toxicity. The final volume per well in the microtiter plates was 200 μL. The final volume in the tissue culture flask varied depending upon experimental design and flask size. Assays were incubated for 6 days in a humidified atmosphere at 37° C., 5% CO^2, after which supernatants were collected, for analysis of RT activity and cell viability by MTS dye reduction. Culture were also examined microscopically, any abnormalities noted, and in the case of tissue culture flasks cell counts and viability determined by Trypan Blue Dye exclusion.
(§2) Time of addition assays were performed with PBMCs in two ways. For both assays, PBMCs were isolated and cultured under the conditions as described above. Time of addition assays were carried out in either a tissue culture flask format (T-75 cm^2) or in microtiter wells. In both cases due to the lack of plastic adherence and heterogeneity of the PBMC population for susceptibility to infection, it was not possible to use complete removal of virus following a timed adsorption to synchronize the infection and limit the assay to a single round of infection. Therefore, serial washing by partial removal of the media was used to reduce the concentration of virus and compound (if required) in the assay. Compound addition in relationship to antiviral activity was either assessed over a short addition interval immediately before or after virus addition or for up to 72 h post infection. For all assays virus replication was assessed at 6 days of culture by determining RT expression in cell-free supernatants. In the tissue culture flask format cells were counted and Trypan Blue Dye exclusion used to monitor compound cytotoxicity. Cell viability in the 96 well microtiter plate format was determined by MTS dye reduction. AZT was used as a positive control.
(§3) At assay termination the assay plates were stained with the soluble tetrazolium-based dye MTS (CellTiter96® Reagent Promega) to determine cell viability and quantify compound toxicity. MTS is metabolized by the mitochondria enzymes of metabolically active cells to a soluble formazan product, allowing the rapid quantitative analysis cell viability and compound cytotoxicity. […] At termination of the assay 20 μL of MTS reagent was added per well and incubated for 4 h at 37° C. […]

[4] = tested on: peripheral blood mononuclear cells (PBMCs); experiment: as above; format: cell-based, Human; settings: read-out: TC50 (the source's name)
Excerpt: as §1, §2, §3

Row | SMILES | pIC50 ([1]; Experiment 1, pretreat 0 h) | pIC50 ([1]; Experiment 1, pretreat 4 h) | pIC50 ([1]; Experiment 1, pretreat 24 h) | pIC50 ([1]; Experiment 2, pretreat 0 h) | pIC50 ([1]; Experiment 2, pretreat 4 h) | pIC50 ([1]; Experiment 2, pretreat 24 h) | β-galactosidase production relative to background (cells alone+compounds) ([1]; at all times) | inhibition of HIV attachment/entry [1] | Comment: suppression of β-galactosidase activity ([1]; pretreat 24 h) | Comments: effect on HIV attachment [2] | % Control ([2]; time 0 h) [%] | pg p24 ([2]; time 0 h) [pg] | % Control ([2]; time 2 h) [%] | pg p24 ([2]; time 2 h) [pg] | % Control ([2]; time 4 h) [%] | pg p24 ([2]; time 4 h) [pg] | % Control ([2]; time 24 h) [%] | pg p24 ([2]; time 24 h) [pg] | CC50 at 6 days ([3]; treatment −4 h pre) [µM] | CC50 ([4]; treatment 6 h post) [µM] | also measured
1 | Cc1ccc2c(c1)-c1c(O)cc(C(C)(C)CCCC(C)C)cc1OC2(C)C [IMG511, 3-Norpentyl-3-(1,1,5-trimethylhexyl)cannabinol] | 4.60 | 5.02 | 5.60 | > 6.80 | 5.08 | 5.15 | suppressed β-galactosidase production below background | consistent inhibition | Suppression of β-galactosidase activity | No Significant effect | 75.5 | 290 | 85.4 | 328 | 76.6 | 294 | 91.7 | 352 | > 100 | > 100 | Comment: suppression of β-galactosidase activity ([1]; pretreat 0 h): Suppression of β-galactosidase activity; Comment: suppression of β-galactosidase activity ([1]; pretreat 4 h): Suppression of β-galactosidase activity,; Comment: transient suppression lost at lower concentrations ([1]; pretreat 4 h): Transient suppression lost with at lower; CC50 ([4]; treatment at infection): > 100 µM
2 | COc1cc(C(C)(C)CCCC(C)C)cc(OC)c1OC [IMG507, 1-(1,1,5-Trimethylhexyl)-3,4,5-trimethoxybenzene] | < 4.30 | < 4.30 | < 4.30 | 4.80 | < 4.30 | < 4.30 | suppressed β-galactosidase production below background | not |  | no significant effect on virus attachment | 83.3 | 320 | 91.4 | 351 | 76.3 | 293 | 95.8 | 368 |  | > 100 | transient suppression of virus replication at lower concentrations of compounds ([1]; observed consistently, two independent experiments): transient suppression of virus replication; Comment: transient suppression lost at lower concentrations ([1]; pretreat 0 h): Transient suppression lost with at lower; Comment: transient suppression lost at lower concentrations ([1]; pretreat 4 h): Transient suppression lost with at lower; Comment: transient suppression lost at lower concentrations ([1]; pretreat 24 h): Transient suppression t lost with at lower; CC50 at 6 days ([3]; treatment at infection): > 100 µM; CC50 ([4]; treatment −4 h pre): > 100 µM
3 | CC1=CCC2C(C1)c1c(O)cc(C(C)(C)CCCC(C)C)cc1OC2(C)C (stereo not shown) [IMG509, 3-Norpentyl-3-(1,1,5-trimethylhexyl)-Δ8-tetrahydrocannabinol] | < 4.30 | 4.68 | 4.94 | 4.55 | 4.44 | 5.46 |  | not | Suppression of β-galactosidase activity |  | 83.6 | 321 | 81.8 | 314 | 61.2 | 235 | 77.3 | 297 | > 100 | > 100 | β-galactosidase production relative to background (cells alone+compounds) ([1]; following 24 h exposure): suppressed β-galactosidase production below background; Comment: transient suppression lost at lower concentrations ([1]; pretreat 0 h): transient suppression of virus replication; also recorded: Transient suppression lost with at lower; inhibition of HIV cell-association ([2]; 4 h preincubation): significantly inhibit HIV cell-association; CC50 ([4]; treatment at infection): > 100 µM
4 | C=C(C)[C@@H]1CCC(C)=C[C@H]1c1c(O)cc(CCCCC)cc1O [Cannabidiol, reference compound] | 4.85 | 5.17 | 5.92 | 5.89 | 4.55 | 5.85 | suppressed β-galactosidase production below background | consistent inhibition | Suppression of β-galactosidase activity | No significant effect | 82.6 | 317 | 74.5 | 286 | 90.9 | 349 | 114.3 | 439 | > 100 | > 100 | Comment: suppression of β-galactosidase activity ([1]; pretreat 0 h): Exp. 1 suppression of β-galactosidase; Comment: suppression of β-galactosidase activity ([1]; pretreat 4 h): Suppression of β-galactosidase activity; virus binding relative to control ([2]; pretreated for 24 h): return to control levels of virus binding; CC50 ([4]; treatment at infection): > 100 µM
